{"source": "patent US10172814B2", "about": "“Substituted pyridyl-cycloalkyl-carboxylic acids, compositions containing them and medical uses thereof” (BAYER PHARMA AKTIENGESELLSCHAFT, priority 2014, dated 2019)", "key": {"[1]": {"assay": "Unbound plasma concentration in human KI mice of the CFA model", "type": "in vivo", "conditions": "female, human PTGES knock-in (humanized KI, transgenic) mice, mouse, plasma, oral, 10 mg/kg; read-out: Plasma concentration Cplasma-unbound", "protocol": "At termination of the experiments (48 h after CFA, 1 h after dose), hind paw tissue is collected for analysis of PGE2 levels (ELISA, Cayman Chemical item no. 514531). […] Statistical analysis is performed with one-way analysis of variance, followed by Bonferroni's multiple comparison test vs. vehicle controls using the GraphPad PRISM software, *p<0.05, **p<0.01."}, "[2]": {"tested_on": "CFA induced PGE2 release in the ipsilateral inflamed hind paw of human KI mice (expressing human PTGES)", "assay": "PGE2 measurements in CFA inflammation model using humanized KI mice", "type": "in vivo", "protocol": "PGE2 Measurements in CFA Inflammation Model Using Humanized KI Mice\nFemale transgenic mice expressing the human PTGES enzyme (Taconic, Xu et al. 2008) received intraplantar injection of complete Freund's adjuvant (CFA) (30 μl, 1 mg/ml, Sigma) into the left hind paw under isoflurane anesthesia. […] At termination of the experiments (48 h after CFA, 1 h after dose), hind paw tissue is collected for analysis of PGE2 levels (ELISA, Cayman Chemical item no. 514531). […] Statistical analysis is performed with one-way analysis of variance, followed by Bonferroni's multiple comparison test vs. vehicle controls using the GraphPad PRISM software, *p<0.05, **p<0.01."}, "[3]": {"tested_on": "vaginal hyperalgesia and proliferation in endometriotic lesions", "assay": "Endometriosis disease model (dyspareunia model)", "type": "in vivo, rat", "conditions": "0.75 mg/kg, bid, p.o.", "source_text": "Endometriosis Disease Model (Dyspareunia Model)\nFemale SD rats underwent endometriosis surgery in the estrus phase. 4 uterine fragments were sewn onto the mesenteric artery arc (closed to small intestine) and few other fragments (>2) were sewn onto the distal colonic wall. In parallel electrodes for later Electromyography (EMG) recordings were implanted in the abdominal wall to allow recording of the visceral motor response. After training viscero-motor response (VMR)/vaginal distension (VD) testing was performed 5 and 6 weeks post-surgery in the proestrus phase. For vaginal distension session, the uninflated balloon was lubricated and inserted into the mid-vaginal canal, located so, that it would not touch the cervix even when inflated. Inflating the balloon with different volumes of water using a computer-controlled pump distended the vaginal canal. In parallel, EMG recordings were collected to measure the VMR related to the distension. At 6 weeks, post-surgery endometriotic lesions and endometrium were excised to perform lesion analysis. RNA expression analysis was performed of lesions and endometrium. RNA of lesions and endometrium was isolated after homogenization of tissues in guanidinium thiocyanate using the RNeasy mini Kit (Qiagen) with DNase digestion. One microgram of RNA was reversely transcribed with random hexamers using the SuperScript III First-Strand Synthesis System (Invitrogen). Real-time Taqman PCR analysis was performed using the 7900HT Real Time PCR-System (Applied Biosystems). Prevalidated probes and primers for Mki67 (antigen identified by monoclonal antibody Ki-67; catalog No. Rn01451446_m1) and the endogenous control TBP* (see FIG. 1A; TATA box binding protein; catalog No. Rn01455646_m1) were purchased from Applied Biosystems. Relative mRNA levels were calculated using the comparative […]CT method using the RQ-Manager software (Applied Biosystems).\nExample 17 (0.75 mg/kg, bid, p.o.) was administered twice daily starting end of week 2 post surgery until week 5 post surgery."}, "[4]": {"tested_on": "CFA-induced pain behavior in WT mice", "assay": "CFA inflammation model with pain read out (dynamic weight bearing)", "type": "in vivo", "conditions": "single oral dosing on day 2 post-CFA, example 17: 30, 100 mg/kg, example 44: 30, 75 mg/kg", "protocol": "Efficacy in CFA Inflammation Model with Pain Read Out\nWild type (WT) female c57bl/6 mice (Taconic) received intraplantar injection of complete Freund's adjuvant (CFA) (30 μl, 1 mg/ml, Sigma) into the left hind paw under isoflurane anesthesia. […] Spontaneous pain-related behavior in freely moving animals was assessed using the automated dynamic weight bearing device (DWB, Bioseb, France) according to published and validated protocols: Robinson I, Sargent B, Hatcher J P, Neurosci Lett. 2012 Aug. 30; 524(2):107-10. Use of dynamic weight bearing as a novel end-point for the assessment of Freund's Complete Adjuvant induced hypersensitivity in mice; Tétreault P, Dansereau M A, Doré-Savard L, Beaudet N, Sarret P. Physiol Behav. 2011 Sep. […] 2014 Jul. 30; 232:118-24. Use of dynamic weight bearing as a novel end-point for the assessment of abdominal pain in the LPS-induced peritonitis model in the rat. For behavioral testing, the animal was placed inside a Plexiglas chamber and allowed to move freely within the apparatus for a 5 min period, subsequently pain behavior is recorded for a test period of another 5 min.\nStatistical analysis is performed with one-way analysis of variance, followed by Bonferroni's multiple comparison test vs. vehicle controls using the GraphPad PRISM software, *p<0.05, **p<0.01."}, "human PTGES": {"target": "human PTGES (Homo sapiens (Human), UniProt O14684)", "sequence (O14684 whole entry)": "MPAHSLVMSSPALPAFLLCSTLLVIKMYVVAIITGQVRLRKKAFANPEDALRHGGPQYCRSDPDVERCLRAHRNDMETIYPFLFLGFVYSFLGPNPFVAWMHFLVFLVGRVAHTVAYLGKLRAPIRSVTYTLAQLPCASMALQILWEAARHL", "assay": "Human PTGES biochemical enzyme inhibition assay (conversion of PGH2 to PGE2, TR-FRET)", "outline": "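FLAG-tagged human PTGES from Hi-5 insect cells preincubated 15–20 min with compound in pH 7.2 phosphate buffer with 2.5 mM reduced glutathione; reaction started with 8 nM PGH2 final, stopped with SnCl2/KF.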"}}, "note": "Read-outs that look alike come from different tables or passages of the source."}
{"molecule": "Cc1c(CCC(=O)O)cccc1NC(=O)[C@@H](c1ccc(-c2cncc(Cl)c2)cc1)C1CCCC1", "note": "[Example 17, (−) (R) 3-[3-({[4-(5-Chloropyridin-3-yl)phenyl](cyclopentyl)acetyl}amino)-2-methylphenyl]propanoic acid]", "values": [{"measurement": "concentration at 1 h", "setting": "[1]", "result": 380, "unit": "nM"}, {"measurement": "% inhibition of PGE2 in vivo vs vehicle", "setting": "[2]; 10 mg/kg, p.o., single dose, hind paw 48 h after CFA, 1 h after dose", "result": 88, "unit": "%"}, {"measurement": "inhibition of CFA-induced PGE2 formation/release in the hind paw", "setting": "[2]; single oral dosing, hu KI mice", "result": "strong efficacy"}, {"measurement": "vaginal hyperalgesia versus vehicle-treated animals", "setting": "[3]; end of week 2 until week 5 post surgery, rats", "result": "significantly decreased vaginal hyperalgesia"}, {"measurement": "proliferation in lesions (gene expression of proliferation marker Ki67 vs. housekeeping control)", "setting": "[3]; Taqman in week 6", "result": "significantly reduced proliferation in lesions"}, {"measurement": "vaginal hyperalgesia effect in the treatment free period", "setting": "[3]; treatment free period of week 6", "result": "effect was maintained"}, {"measurement": "pain behavior as assessed by DWB after CFA-induced inflammation", "setting": "[4]", "result": "significantly and dose-dependently reduced pain behavior"}, {"measurement": "IC50", "setting": "human PTGES; Enzymatic conversion of PGH2 to PGE2, read-out: Human PTGES IC50", "result": 0.0352, "unit": "µM"}, {"measurement": "IC50", "setting": "human PTGES; human PTGES, as listed in Table 2, read-out: hu IC50 biochem.", "result": 0.035, "unit": "µM"}]}
